Where two headings read alike, the source gives them in different places. Where no end group is shown, it is not given here.
Tests used:
E. faecalis (NCTC 12697) [1] = format: cell-based, Enterococcus faecalis
Procedure: (§1) The antimicrobial activity of the peptides was determined through the minimum inhibitory concentrations (MICs) and the minimum bactericidal concentration (MBCs) using the broth-dilution method in a 96-well plate, as described in the previous study. Six bacteria, including the Gram-positive bacteria, S. aureus (ATCC CRM 6538), MRSA (ATCC CRM 12493) and E. faecalis (NCTC 12697), the Gram-negative bacteria, E. coli (ATCC CRM 8739), K. pneumoniae (ATCC CRM 43816) and P. aeruginosa (ATCC CRM 9027), the yeast, C. albicans (ATCC CRM 10231) and clinical isolates, S. aureus (B042 V2E1 A), MRSA (B038 V1S1 A), E. coli (ATCC BAA-2340) and K. pneumoniae (ATCC BAA-1705) were used in these assays to evaluate the antimicrobial potency of the two peptides by determining their MICs and MBCs. All bacteria were cultured in MHB and the yeast, C. albicans was cultured in YPD broth overnight. Then, the microorganisms were sub-cultured and diluted to the final concentration of 2 × 10^5 CFU/mL to 5 × 10^5 CFU/mL. The Norfloxacin and amphotericin B were used as positive controls for the bacteria and yeast, respectively. The assay was repeated three times, with five replicates at each time.

[2] = tested on: P. aeruginosa (ATCC CRM 9027); format: cell-based, Pseudomonas aeruginosa
Procedure: as §1

[3] = tested on: C. albicans (ATCC CRM 10231); format: cell-based, Candida albicans
Procedure: as §1

[4] = tested on: S. aureus (ATCC CRM 6538); format: cell-based, Staphylococcus aureus
Procedure: as §1

S. aureus (B042 V2E1 A) = format: cell-based, Staphylococcus aureus
Procedure: as §1

MRSA (ATCC CRM 12493) [5] = format: cell-based, methicillin-resistant S. aureus
Procedure: as §1

MRSA (B038 V1S1 A) = format: cell-based, methicillin-resistant S. aureus
Procedure: as §1

E. coli (ATCC BAA-2340) = format: cell-based, Escherichia coli
Procedure: as §1

E. coli (ATCC CRM 8739) [6] = format: cell-based, Escherichia coli
Procedure: as §1

[7] = tested on: K. pneumoniae (ATCC BAA-1705); format: cell-based, Klebsiella pneumoniae
Procedure: as §1

[8] = tested on: K. pneumoniae (ATCC CRM 43816); format: cell-based, Klebsiella pneumoniae
Procedure: as §1

[9] = tested on: S. aureus (ATCC CRM 6538); format: cell-based, Staphylococcus aureus; remark: listed apart in the source
Procedure: (§2) The MBIC and MBEC assays were performed to measure the inhibition and eradication of bacterial biofilm in the presence of different concentrations of peptides. Gram-positive bacteria were inoculated in Luria–Bertani (LB) broth at 37 °C overnight whereas Gram-negative bacteria were inoculated in tryptic soy broth (TSB), and then sub-cultured until reaching the logarithmic growth phase by measuring the OD values at a wavelength of 550nm. For the MBIC assay, 99 µL of diluted bacterial suspension (5 × 10^5 CFU/mL) was mixed with 1 µL of prepared peptide solutions in the wells of a round-bottomed 96-well plate, achieving the final concentrations from 512 to 1 µM, and then incubated at 37 °C for 24 h in a shaking incubator at 200 revolutions per minute (rpm). After this, the plate was washed twice by PBS and fixed with methanol for 30 min. For MBEC assay, 100 µL of diluted bacterial suspension (5 × 10^5 CFU/mL) was seeded into a round-bottomed 96-well plate and incubated at 37 °C for 24 h in a shaking incubator at 200 rpm to obtain mature biofilm. After this, plates were washed twice by PBS and incubated with different concentrations of peptide solution from 512 to 1 µM at 37 °C for 24 h. Afterwards, the plate was washed twice with PBS and fixed with methanol for 30 min. Then, both MBIC and MBEC plates were stained by 130 μL of 0.1% (g/v) crystal violet solutions for 30 min and washed with PBS until no apparent staining was observed. Evaporating crystal violet stains were dissolved by 33% (v/v) acetic acid, and the absorbance values were measured by a Synergy HT Microplate Reader (BioTek, Minneapolis, MN, USA) set to 595 nm. The minimum concentration that inhibited the formation of biofilm was defined when compared to the negative control group, as the MBIC. The minimum concentration that eradicated the biofilm was defined, when compared to the negative control group, as the MBEC. The biofilm assays were performed in triplicate.

E. faecalis (NCTC 12697) [10] = format: cell-based, Enterococcus faecalis; remark: listed apart in the source
Procedure: as §2

MRSA (ATCC CRM 12493) [11] = format: cell-based, methicillin-resistant S. aureus; remark: listed apart in the source
Procedure: as §2

E. coli (ATCC CRM 8739) [12] = format: cell-based, Escherichia coli; remark: listed apart in the source
Procedure: as §2

[13] = tested on: K. pneumoniae (ATCC CRM 43816); format: cell-based, Klebsiella pneumoniae; remark: listed apart in the source
Procedure: as §2

[14] = tested on: P. aeruginosa (ATCC CRM 9027); format: cell-based, Pseudomonas aeruginosa; remark: listed apart in the source
Procedure: as §2

horse erythrocytes = format: cell-based
Procedure: The haemolysis assays were performed by incubating prewashed erythrocyte suspension obtained from fresh defibrinated horse blood (TCS Biosciences Ltd., Buckingham, UK) with a range of peptides at final concentrations from 512 to 1 μM, for 2 h at 37 °C. The red cell suspensions were washed with phosphate-buffered saline (PBS) until the supernatant was clear and then diluted with PBS to form a 2% cell suspension. Peptides were 2-fold diluted by the 2% cell suspension to reach the final concentration range from 512 to 1 μM. The haemolysis of the cell suspensions with either 1% (v/v) Triton X-100 or PBS, were considered as positive controls and negative controls, respectively. After incubation, the extent of haemolysis was determined by measuring the absorbance of the supernatant from each sample at 570 nm with a Synergy HT plate reader (BioTek, USA).
Data were analysed using Prism (Version 8.2.1; GraphPad Software, Inc, San Diego, CA, USA). Error bars in the graphs represented standard errors of means (SEM) of nine repeats from three independent tests. The statistical significance was calculated using two-way ANOVA and is indicated as ns (non-significant difference), * (p < 0.05), ** (p < 0.01), *** (p < 0.001), ****(p < 0.0001). The HC10, HC50 and IC50 values were calculated using the online tool AAT Bioquest (https://www.aatbio.com/index.html, accessed on 6 May 2022).

[15] = clinical isolated strain S. aureus (B042 V2E1 A)
[16] = clinical isolated strain MRSA (B038 V1S1 A)
[17] = KPC-producing resistant strain E. coli (ATCC BAA-2340)
[18] = KPC-producing resistant strain K. pneumoniae (ATCC BAA-1705)

VNVLDKIR-NH2 [VN-8, VNVLDKIR-NH2]
>512 µM: MBC (E. faecalis (NCTC 12697) [1]; E. faecalis (NCTC 12697)) | MIC (E. faecalis (NCTC 12697) [1]; E. faecalis (NCTC 12697)) | MBC ([2]; P. aeruginosa (ATCC CRM 9027)) | MIC ([2]; P. aeruginosa (ATCC CRM 9027)) | MBC ([3]; C. albicans (ATCC CRM 10231)) | MIC ([3]; C. albicans (ATCC CRM 10231)) | MBC ([4]; S. aureus (ATCC CRM 6538)) | MIC ([4]; S. aureus (ATCC CRM 6538)) | MBC (S. aureus (B042 V2E1 A); [15]) | MIC (S. aureus (B042 V2E1 A); [15]) | MBC (MRSA (ATCC CRM 12493) [5]; MRSA (ATCC CRM 12493)) | MIC (MRSA (ATCC CRM 12493) [5]; MRSA (ATCC CRM 12493)) | MBC (MRSA (B038 V1S1 A); [16]) | MIC (MRSA (B038 V1S1 A); [16]) | MBC (E. coli (ATCC BAA-2340); [17]) | MIC (E. coli (ATCC BAA-2340); [17]) | MBC (E. coli (ATCC CRM 8739) [6]; E. coli (ATCC CRM 8739)) | MIC (E. coli (ATCC CRM 8739) [6]; E. coli (ATCC CRM 8739)) | MBC [7, 18] | MIC [7, 18] | MBC ([8]; K. pneumoniae (ATCC CRM 43816)) | MIC ([8]; K. pneumoniae (ATCC CRM 43816)) | MBEC ([9]; biofilm eradication, S. aureus (ATCC CRM 6538)) | MBIC ([9]; biofilm formation, S. aureus (ATCC CRM 6538)) | MBEC (E. faecalis (NCTC 12697) [10]; biofilm eradication, E. faecalis (NCTC 12697)) | MBIC (E. faecalis (NCTC 12697) [10]; biofilm formation, E. faecalis (NCTC 12697)) | MBEC (MRSA (ATCC CRM 12493) [11]; biofilm eradication, MRSA (ATCC CRM 12493)) | MBIC (MRSA (ATCC CRM 12493) [11]; biofilm formation, MRSA (ATCC CRM 12493)) | MBEC (E. coli (ATCC CRM 8739) [12]; biofilm eradication, E. coli (ATCC CRM 8739)) | MBIC (E. coli (ATCC CRM 8739) [12]; biofilm formation, E. coli (ATCC CRM 8739)) | MBEC ([13]; biofilm eradication, K. pneumoniae (ATCC CRM 43816)) | MBIC ([13]; biofilm formation, K. pneumoniae (ATCC CRM 43816)) | MBEC ([14]; biofilm eradication, P. aeruginosa (ATCC CRM 9027)) | MBIC ([14]; biofilm formation, P. aeruginosa (ATCC CRM 9027))

FVNVLDKIR-NH2 [FV-9, FVNVLDKIR-NH2]
504.21 µM: HC10 (horse erythrocytes)
>512 µM: MBC (E. faecalis (NCTC 12697) [1]; NCTC 12697) | MIC (E. faecalis (NCTC 12697) [1]; NCTC 12697) | MBC ([2]; ATCC CRM 9027) | MIC ([2]; ATCC CRM 9027) | MBC ([3]; ATCC CRM 10231) | MIC ([3]; ATCC CRM 10231) | MBC ([4]; ATCC CRM 6538) | MIC ([4]; ATCC CRM 6538) | MBC (S. aureus (B042 V2E1 A); B042 V2E1 A) | MIC (S. aureus (B042 V2E1 A); B042 V2E1 A) | MBC (MRSA (ATCC CRM 12493) [5]; ATCC CRM 12493) | MIC (MRSA (ATCC CRM 12493) [5]; ATCC CRM 12493) | MBC (MRSA (B038 V1S1 A); B038 V1S1 A) | MIC (MRSA (B038 V1S1 A); B038 V1S1 A) | MBC (E. coli (ATCC BAA-2340); ATCC BAA-2340) | MIC (E. coli (ATCC BAA-2340); ATCC BAA-2340) | MBC (E. coli (ATCC CRM 8739) [6]; ATCC CRM 8739) | MIC (E. coli (ATCC CRM 8739) [6]; ATCC CRM 8739) | MBC ([7]; ATCC BAA-1705) | MIC ([7]; ATCC BAA-1705) | MBC ([8]; ATCC CRM 43816) | MIC ([8]; ATCC CRM 43816) | MBEC ([9]; ATCC CRM 6538, 24 h) | MBIC ([9]; ATCC CRM 6538, 24 h) | MBEC (E. faecalis (NCTC 12697) [10]; NCTC 12697, 24 h) | MBIC (E. faecalis (NCTC 12697) [10]; NCTC 12697, 24 h) | MBEC (MRSA (ATCC CRM 12493) [11]; ATCC CRM 12493, 24 h) | MBIC (MRSA (ATCC CRM 12493) [11]; ATCC CRM 12493, 24 h) | MBEC (E. coli (ATCC CRM 8739) [12]; ATCC CRM 8739, 24 h) | MBIC (E. coli (ATCC CRM 8739) [12]; ATCC CRM 8739, 24 h) | MBEC ([13]; ATCC CRM 43816, 24 h) | MBIC ([13]; ATCC CRM 43816, 24 h) | MBEC ([14]; ATCC CRM 9027, 24 h) | MBIC ([14]; ATCC CRM 9027, 24 h)
504.2 µM: HC10 (horse erythrocytes; red cells of horse, 2 h)
